Data as given in publication PMC9814205, “Targeting undruggable carbohydrate recognition sites through focused fragment library design” (Communications Chemistry, 2022).
“And” between values parts separate entries of the source, which are not always exact repeats. Equal entries are not always repeated. “Also recorded” adds a separate entry of the source.

Key:
Assay type in all cases: binding
[1] = biological target: T1, LecA (Pseudomonas aeruginosa, UniProt Q05097); assay: Competitive fluorescence polarization (FP) assay; conditions: for Inhibition in FP: compared to MeGal at 10 mM (16 h); for inhibition at 10000 µM: read-out: Inhibition in FP, compared to MeGal at 10 mM (16 h)
T1 construct: made in house
T1 sequence (Q05097 whole entry): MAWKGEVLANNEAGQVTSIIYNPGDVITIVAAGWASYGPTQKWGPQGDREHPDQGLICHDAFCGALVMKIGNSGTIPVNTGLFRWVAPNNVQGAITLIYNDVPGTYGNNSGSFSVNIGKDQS
Experimental: The FP assay was performed in a black 384-well plate (Greiner Bio-One, Germany, 781900) with the final volume of 20 µL as described previously. Briefly, 10 µL of a sample solution series (10–0.078 mM) in TBS buffer containing 10 mM Ca^2+ (TBS/Ca^2+-buffer) and 20% DMSO were added in technical triplicates to 10 µL LecA (40 µM) preincubated with a galactose-based Cy5 conjugate[68] (20 nM) in TBS/Ca^2+-buffer. […] The plate was sealed (EASYseal, Greiner Bio-One, 676,001), centrifuged (1 min, 1500 rpm, 25 °C) and incubated in a humidity chamber for 16 h. The fluorescence was measured with an excitation 590 nm and emission 675 nm filter[68] on a PheraStar FS plate reader (BMG Labtech GmbH, Germany). The blank signal of TBS/Ca^2+-buffer containing 10% DMSO was subtracted and the compounds were analyzed with the MARS Data Analysis Software (BMG Labtech GmbH Germany) using the four-parameter variable slope model. The top and bottom plateaus were defined according to the positive controls. The graphs were visualized using Graphpad Prism 5. The percentage (%) of inhibition was calculated at the highest concentration compared with 10 mM MeGal set to 100%.

[2] = biological target: T2, 5FW LecA (PA-IL) (Pseudomonas aeruginosa, UniProt Q05097); assay: PrOF NMR with 5-fluorotryptophan-labeled LecA; conditions: for LE: ligand efficiency calculated from Kd for LecA, 310 K
T2 construct: made in house
T2 sequence (Q05097 2-122): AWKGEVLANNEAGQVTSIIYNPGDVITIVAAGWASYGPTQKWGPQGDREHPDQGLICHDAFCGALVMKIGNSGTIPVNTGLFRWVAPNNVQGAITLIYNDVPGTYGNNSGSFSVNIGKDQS
Experimental: PrOF NMR was performed as reported previously. Briefly, 150 µM 5FW LecA was recorded alone and in the presence of DMSO or 2–4 mM compounds in TBS/Ca^2+ buffer. The difference in chemical shift perturbations of W42 in 5FW LecA free vs bound forms was followed to determine Kd values of compounds. The Kd values were calculated according to the one-site-binding model in Origin(Pro) 2020b (OriginLab Corp., USA) from two or three independent titrations. Ligand efficiency values were calculated according to Eq. (1) for a temperature of 310 K.

[3] = biological target: T3, 15N LecA (Pseudomonas aeruginosa, UniProt Q05097); assay: 1H-15N TROSY NMR with 15N LecA; conditions: for binding to 15N LecA in TROSY NMR: 4 mM analogs of 1, 1 mM marketed hydroxamates
T3 construct: made in house
T3 sequence (Q05097 whole entry): as the sequence (Q05097 whole entry) above
Experimental: (§1) The ^1H-^15N TROSY pulse sequence trosyf3gpphsi19 with 128 increments and 32 scans per increment was applied for 0.15 mM ^15N LecA and 0.07 mM LecB in HBS/Ca^2+ buffer (20 mM HEPES pH 7.4, 150 mM NaCl, 10 mM CaCl2, 10% D2O and 100 µM sodium trimethylsilylpropanesulfonate (DSS) as internal reference) at 310 K. The ^1H-^15N HSQC pulse sequence hsqcf3gpph19 with 128 increments and 8 scans per increment was applied for 0.1 mM ^15N DC-SIGN and Langerin CRD in HBS/Ca^2+ buffer at 298 K. For screening of 650 non-fluorinated fragments of the general library against ^15N LecA, a mix of 10 compounds at 1 mM each was combined with 0.15 mM ^15N LecA in HBS/Ca^2+ buffer (20 mM HEPES pH 7.4, 150 mM NaCl, 10 mM CaCl2, 10% D2O and 100 µM sodium trimethylsilylpropanesulfonate (DSS) as internal reference, whereas the fragments with the MBP scaffolds were validated separately at 1 mM. Similarly, 9 nonfluorinated fragments from the MBP library were screened against ^15N-labeled DC-SIGN, LecA and LecB. To validate the fragment binding to proteins, we recorded ^1H-^15N HSQC and TROSY NMR of proteins in the presence of DMSO as negative control and 2 mM fragments in HBS/Ca^2+ buffer. Natural ligands were used as positive controls at 1 mM MeGal, MeFuc and 30 mM D-mannose to LecA/LecB and DC-SIGN CRD/Langerin CRD, respectively. Titration experiments with ^15N-labeled DC-SIGN CRD or LecB were recorded in HBS/Ca^2+ buffer with 30 mM CaCl2 and 0.25 to 4–8 mM malonic acid derivatives. The Kd values were calculated according to the one-site-binding model in Origin(Pro) 2020b (OriginLab Corp., USA). Ligand efficiency calculations were done according to Eq. (1) for a temperature of 298 K and 310 K for DC-SIGN CRD and LecB, respectively.1 LE=RTlnKd/HA, with the temperature T [K], the gas constant R [kcal mol^−1 K^−1], and the number of non-hydrogen atoms HA[56].
All data were processed with NMRpipe[65] and analyzed with CcpNmr analysis. For data analysis, the protein fingerprint of ^15N DC-SIGN (Table S7) or Langerin CRD was assigned as reported previously. The ^1H-^15N TROSY resonances of ^15N LecA and ^15N LecB were indexed with IDs due to a lack of protein backbone resonance assignment (Tables S8-S9). Next, resonance IDs from protein spectra were transferred to the spectra obtained in the presence of compounds in order to compare the changes in chemical shift perturbations for the fast exchange peaks. The changes in chemical shift perturbations (CSPs) were calculated according to Eq. (2):2 △δ=1/2△δH2+α△δN^2 in which δ is the difference in chemical shift (in ppm) and α is an empirical weighting factor of 0.14 for all amino acid backbone resonances. The threshold value was set based on three independent measurements of reference spectra to 0.01 ppm for LecA, LecB, DC-SIGN CRD and Langerin CRD.

[4] = biological target: T1, LecA; assay: SPR with immobilized LecA; conditions: compounds at 0.2 and 1 mM
Experimental: All experiments were performed on a BIACORE X100 instrument (GE Healthcare) at 25 °C in phosphate-buffered saline (10 mM phosphate buffer pH 7.4, 2.7 mM KCl, 137 mM NaCl, 0.05% Tween-20, 100 µM CaCl2, 5% DMSO). LecA was immobilized onto a CM7 chip (BIACORE) following standard amine coupling procedures. The CM7 chip was activated by three injections of a NHS/EDC mixture with a contact time of 540 s at a flow rate of 10 µL min^−1 until the response exceeded 800 RU, followed by multiple injections of LecA dissolved in 10 mM sodium acetate pH 4.5 (100 µg/mL) onto channel 2 (contact time of 540 s at a flow rate of 10 µL min^−1). A minimum of 10,000 RU of LecA was captured onto the chip. Initial binding screens were performed with the injections of 0.2 and 1 mM of each hydroxamate (association 30 s, dissociation 60 s, 30 µL min^−1 flow rate), to identify the initial binders eliciting dose-response behaviors. Injection of the positive control (0.1 mM 4-Nitrophenyl-β-D-galactoside) was included after every forth injection cycle to monitor the activity of immobilized LecA throughout the binding screen experiments. All data evaluation was performed using BIACORE X100 evaluation software (v.2.0).

[5] = biological target: T4, LecB (PA-IIL) (Pseudomonas aeruginosa, UniProt Q9HYN5); assay: 1H-15N TROSY NMR with 15N LecB; conditions: 2 mM compound
T4 construct: made in house
T4 sequence (Q9HYN5 entry or part of it): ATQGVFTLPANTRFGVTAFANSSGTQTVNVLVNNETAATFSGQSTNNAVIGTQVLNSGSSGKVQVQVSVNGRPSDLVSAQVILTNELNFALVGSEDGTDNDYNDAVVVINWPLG
Experimental: as §1, with “Ligand efficiency calculations were done according to Eq. (1) for a temperature of 298 K and 310 K for DC-SIGN CRD and LecB, respectively.1 LE=RTlnKd/HA, with the temperature T [K], the gas constant R [kcal mol^−1 K^−1], and the number of non-hydrogen atoms HA[56].” left out
All data were processed with NMRpipe[65] and analyzed with CcpNmr analysis. […] The changes in chemical shift perturbations (CSPs) were calculated according to Eq. (2):2 △δ=1/2△δH2+α△δN^2 in which δ is the difference in chemical shift (in ppm) and α is an empirical weighting factor of 0.14 for all amino acid backbone resonances. […]

[6] = biological target: T1, LecA; assay: Competitive 19F T2-filtered NMR with reporter 5; conditions: 0.1 mM 5, 10 mM CaCl2, 3 mM competitor
Experimental: The analogs of 1 (5) and 58 (61) were used as fluorinated spy molecules in ^19F T2-filtered NMR experiments. Two samples containing 0.1 mM 5 or 61 alone or a 10 µM protein in TBS/EDTA buffer followed by addition of 10 mM CaCl2 and the carbohydrates: 1 mM MeGal (LecA), 1 mM MeFuc (LecB/BambL) and 30 mM D-mannose (DC-SIGN/Langerin). Similarly, 0.1 mM 5 was used to prioritize hydroxamate derivatives, where 3 mM analogs of 1 were added to the samples instead of the carbohydrates. The ^19F and ^19F T2-filtered spectra were recorded with 64 scans, a spectral width of 5 ppm, a transmitter offset at −155.5 ppm (5) and −155.5 ppm (61), the acquisition time of 0.8 s, 2 s relaxation time applying a T2-filter of 384 ms. All spectra were analyzed as described above.

| SMILES | Inhibition in FP [1] | Kd [2] | LE [2] | inhibition at 10000 µM [1] | binding to 15N LecA in TROSY NMR [3] | further results |
| --- | --- | --- | --- | --- | --- | --- |
| Cc1ccccc1CC(=O)NO [compound 10] | 14–16% and 14 ± 4% |  |  |  |  |  |
| O=C(CC1CCCCC1)NO [compound 6] |  | 4.4 ± 0.6 mM | 0.30 kcal mol^−1 HA^−1 | 21 ± 1% | preserved its binding |  |
| CONC(=O)Cc1ccccc1 [compound 7] | lost their binding and inhibitory effect; also recorded: No inhibiton |  |  |  | not tolerated |  |
| COc1ccc(CCCC(=O)NO)cc1 [compound 40] | 27 ± 1% |  |  | 27 to 39% |  |  |
| NC(C(=O)NO)c1ccccc1 (centres unmarked) [compound 1] |  | 7.2 ± 1.4 mM | 0.25 kcal mol^−1 HA^−1 |  |  | inhibition at 4000 µM ([1]; read-out: Inhibition in FP, compared to MeGal, measured at 4 mM (16 h)): 6%; Efficiency in SPR (normalized binding response) [4]: 11.6%; binding to 15N LecB in TROSY NMR [5]: did not bind; total % of CSPs normalized to MeGal in 15N LecA ([3]; 2 mM compound, 1 mM MeGal): 40%; competition of reporter 5 from LecA (recovery of 19F peak) [6]: did not displace |
| Cc1ccc(CCCC(=O)NO)cc1 [compound 36] | 35 ± 3% | 3.6 ± 2.2 mM | 0.25 kcal mol^−1 HA^−1 | 27 to 39% | slightly improved binding |  |
| O=C(CC=Cc1ccccc1)NO [compound 42] |  |  |  | 13 ± 3% | not tolerated |  |
| O=C(COCCCc1ccccc1)NO [compound 44] |  |  |  | 17 ± 2% |  |  |
| O=C(CCCc1ccccc1)NO [compound 35, N-hydroxy-4-phenylbutanamide] |  | 4.6 ± 0.9 mM | 0.26 kcal mol^−1 HA^−1 | 26 ± 1% | preserved the binding | competition of reporter 5 from LecA (recovery of 19F peak) [6]: recovered; also recorded: displaced |
| COc1cccc(C(O)=CC(=O)NO)c1 [compound 31] |  |  |  | 9 ± 2% |  |  |
| O=C(Cc1ccccc1)NO [compound 2, N-hydroxy-2-phenylacetamide] | 18 ± 1% | 6.1 ± 0.9 mM |  | 18.3 ± 1% | preserved the binding | competition of reporter 5 from LecA (recovery of 19F peak) [6]: recovered |
